Results on two molecules are retold here after patent publication CN103739655A, “28-O-β-D-葡萄糖基化远志皂苷、其制备方法及用途” (Individual, priority 2013, dated 2014).

Assay type in all cases: in vivo
For assay [1], the system named is xylene-induced mouse ear swelling (二甲苯所致小鼠耳肿胀模型). In words: xylene-induced ear swelling model in mice. To be noted: intragastric.
The subject of assay [2] is carrageenan-induced rat paw swelling (角叉菜胶致大鼠足肿胀模型). The experiment in a line: carrageenan-induced paw swelling model in rats. To be noted: intragastric; for 1 h swelling degree / 3 h swelling degree / 5 h swelling degree / 7 h swelling degree: once daily for 3 days; for 1 h swelling degree: 1 h after carrageenan, control 0.41±0.12; for 3 h swelling degree: 3 h after carrageenan, control 0.83±0.13; for 5 h swelling degree: 5 h after carrageenan, control 0.70±0.12; for 7 h swelling degree: 7 h after carrageenan, control 0.63±0.11. On the technique in general: In the carrageenan paw model, swelling and tenderness develop within hours.

A further assay relates to rat AA model (大鼠AA模型). The experiment in a line: rat AA model (FCA-induced primary inflammation). To be noted: for 6 h swelling degree / 12 h swelling degree / 18 h swelling degree / 24 h swelling degree: intragastric from 3 days before FCA; for 6 h swelling degree: 6 h after FCA, control 0.49±0.06; for 12 h swelling degree: 12 h after FCA, control 0.54±0.07; for 18 h swelling degree: 18 h after FCA, control 0.64±0.07; for 24 h swelling degree: 24 h after FCA, control 0.50±0.06.

Setting [3] is: 25, 50, 100 mg/kg, intragastric.

As a reminder, the inhibition is how much of the control response was suppressed.

For the molecule 28-O-β-D-葡萄糖基化远志皂苷, the inhibition rate in assay [1] (25 mg/kg (low dose), once daily for 3 days, ear swelling vs control, P<0.05) came to 6.5%. In assay [1] (50 mg/kg (medium dose), once daily for 3 days, ear swelling vs control, P<0.01), this molecule yielded an inhibition rate of 39.1%. In assay [1] (100 mg/kg (high dose), once daily for 3 days, ear swelling vs control, P<0.01), this molecule gave an inhibition rate of 48.4%. Also, the “inhibition of xylene-induced acute inflammation of mouse auricle” value in assay [1] (25, 50, 100 mg/kg) was “能抑制”. Further, in assay [2] (25 mg/kg (low dose)), the “1 h swelling degree” value is 0.33 ± 0.05 mL, the “3 h swelling degree” value was 0.64 ± 0.16 mL, the “5 h swelling degree” value is 0.48 ± 0.13 mL and the “7 h swelling degree” value came to 0.33 ± 0.07 mL. In addition, in assay [2] (50 mg/kg (medium dose)), the “1 h swelling degree” value turned out to be 0.17 ± 0.05 mL, the “3 h swelling degree” value stood at 0.45 ± 0.12 mL, the “5 h swelling degree” value was 0.39 ± 0.07 mL and the “7 h swelling degree” value is 0.19 ± 0.05 mL. In assay [2] (100 mg/kg (high dose)), the “1 h swelling degree” value is 0.11 ± 0.05 mL, the “3 h swelling degree” value is 0.37 ± 0.13 mL, the “5 h swelling degree” value came out at 0.31 ± 0.08 mL and the “7 h swelling degree” value was determined as 0.16 ± 0.09 mL. Further, in assay [2] (25, 50, 100 mg/kg), the “concentration dependence of inhibition of rat paw swelling” value is “具有一定的浓度依赖性” and the “inhibition of carrageenan-induced rat paw swelling” value was “有抑制作用”. Also, in the assay on rat AA model (大鼠AA模型) (25 mg/kg (low dose)), the “6 h swelling degree” value was determined as 0.45 ± 0.05 mL, the “12 h swelling degree” value was 0.51 ± 0.16 mL, the “18 h swelling degree” value worked out at 0.61 ± 0.13 mL and the “24 h swelling degree” value is 0.46 ± 0.15 mL. Moreover, in the assay with rat AA model (大鼠AA模型) (50 mg/kg (medium dose)), the “6 h swelling degree” value was 0.28 ± 0.05 mL, the “12 h swelling degree” value turned out to be 0.30 ± 0.08 mL, the “18 h swelling degree” value was 0.33 ± 0.06 mL and the “24 h swelling degree” value is 0.27 ± 0.07 mL. Also, in the assay on rat AA model (大鼠AA模型) (100 mg/kg (high dose)), the “6 h swelling degree” value turned out to be 0.15 ± 0.06 mL, the “12 h swelling degree” value turned out to be 0.19 ± 0.08 mL, the “18 h swelling degree” value was 0.30 ± 0.07 mL and the “24 h swelling degree” value was 0.25 ± 0.06 mL. In the assay on rat AA model (大鼠AA模型) (setting [3]), the “concentration dependence of inhibition of primary inflammation in AA rats” value is “具有一定的浓度依赖性” and the “inhibition of FCA-induced primary inflammation in AA rats” value is recorded as “有明显的抑制作用”.
As for `COc1ccc2cc([C@H](C)C(=O)O)ccc2c1` [萘普生, reference compound], the inhibition at 45 mg/kg in assay [1] (Mus musculus, po, 72 h, 45 mg/kg, once daily for 3 days, ear swelling vs control, P<0.01, read-out: inhibition rate) was found to be 45.7%. In addition, in assay [2] (30 mg/kg), the “1 h swelling degree” value is 0.08 ± 0.07 mL, the “3 h swelling degree” value came out at 0.21 ± 0.05 mL, the “5 h swelling degree” value came to 0.13 ± 0.08 mL and the “7 h swelling degree” value was found to be 0.12 ± 0.07 mL. Also, in the assay on rat AA model (大鼠AA模型) (30 mg/kg), the “6 h swelling degree” value came out at 0.16 ± 0.09 mL, the “12 h swelling degree” value worked out at 0.22 ± 0.07 mL, the “18 h swelling degree” value came out at 0.29 ± 0.08 mL and the “24 h swelling degree” value turned out to be 0.28 ± 0.06 mL.
